# Results: patent publication US20250059231A1, “Protease inhibitors” (priority 2021, published 2025)
# Where a SMILES comes first, the peptide text is derived from it. The star is where a group is joined. Palmitoyl = CCCCCCCCCCCCCCCC(=O)*
# What was measured:
# [1] = biological target: T1, WNV protease (West Nile virus, UniProt P06935); experiment: WNV protease assay (analogous procedure); type: biochemical; conditions: read-out: IC50 for WNNV
# T1 construct: a trypsin-like serine protease domain in the N-terminal region of the flaviviral NS3 proteins
# [2] = tested on: Dengue virus 2 (DENV2, ATCC VR-1584); experiment: DENV2 infection in AG129 mice: clinical signs, body and spleen weights; type: in vivo; conditions: for Body weights of mice at the end of the study (Mean ± SD): b.i.d, n = 9; for general clinical signs of treated animals: 20 and 10 mg/kg
# Description: The purpose of this study was to determine the efficacy of the compounds on Dengue virus 2 (DENV2, ATCC® VR-1584™) infection in AG129 mice.
# Six groups of AG129 mice, 6-8 weeks old, with 9 mice per group were used to test compounds according to table 3.1.1. Animal room environment was monitored for temperature and relative humidity twice per day. The temperature range was 22° C.±3° C. and humidity range was 30-70%. The animals were provided with 12 hours light and 12 hours darkness. Feed and drinking water was provided ad libitum. Compounds 43 and 113 were tested.
# C6/36 (ATCC(CRL-1660) cell lines were grown in RPMI 1640 medium (Gibco/HiMedia) plus 5% fetal bovine serum at 28° C. Dengue virus type 2 (ATCC®VR-1584™) New Guinea C(NGC, DENV2) was passaged in BHK-21 cell cultures to make sufficient stocks for assay. Virus titer was determined by TCID50 method using BHK-21 cells.
# Twenty-four hours post treatment (Day 0), animals were injected intraperitoneally (IP) with 0.2 ml of virus suspension (˜5×10^7/animal).
# The vehicle for tested compounds was 5% DMSO+95% (20%) hydroxypropylcyclodextrin. […] Formulations were prepared daily immediately before dosing.
# Administration of compounds and vehicle to animals started twenty four hours before infection (Day −1). Animals were treated daily (From Day-1 to day 4) as per the experimental design shown below in table 3.1.5. Animals were monitored for general clinical signs, morbidity and mortality. Body weights were measured daily.
# Animals were sacrificed on day 5 post infection with Isoflurane followed by an overdose of CO2. Spleens were excised, measured and weighed.
# The Mean±SD Log10PFU/ml, relative Mean±SD spleen weight, Mean±SD biomarker concentrations were estimated in each group. Significant differences between group means and control were analyzed by one-way ANOVA, followed by a Dunnett's multiple comparison test, using GraphPad Prism 5 at 95% confidence levels. A p value of <0.05 was considered as significant.
# [3] = parameters: species or system mice; conditions: mouse, in vivo
# Excerpt: FIG. 5A-multidose PK-profiles of compound 113 in mice after intravenous (IV), intraperitoneal (IP) and subcutaneous (SC) administration to mice (dosed twice per day for 5 days, mean of 3 mice per group).
# FIG. 5D-multidose PK-profiles of compound 43 in mice after intravenous (IV), intraperitoneal (IP) and subcutaneous (SC) administration to mice (dosed twice per day for 5 days, mean of 3 mice per group).
# Similar data was obtained with compound 43 (FIG. 5D)
# [4] = biological target: T2, DENV protease (Dengue virus type 2, UniProt P29990); experiment: biochemical; conditions: for inhibition at 50 µM: read-out: inhibition of DENV
# T2 construct: The virus-encoded dengue protease comprises the amino-terminal 180 amino acids of NS3 (NS3pro) of the polyprotein
# Outline: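 DENV protease (100 nM) was pre-incubated 15 min with inhibitors in 50 mM Tris-HCl pH 9.0, 10% ethylene glycol, 0.0016% Brij 58. FRET substrate (50 μM final) started the reaction, monitored 15 min as RFU/s slope. IC50 came from triplicate means versus concentration.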
# [5] = biological target: T3, ZIKA protease (Zika virus, UniProt Q32ZE1); experiment: biochemical; conditions: for inhibition at 1 µM / inhibition at 50 µM: read-out: inhibition of ZIKV
# T3 construct: a trypsin-like serine protease domain in the N-terminal region of the flaviviral NS3 proteins
# T3 sequence (Q32ZE1 1499-1676): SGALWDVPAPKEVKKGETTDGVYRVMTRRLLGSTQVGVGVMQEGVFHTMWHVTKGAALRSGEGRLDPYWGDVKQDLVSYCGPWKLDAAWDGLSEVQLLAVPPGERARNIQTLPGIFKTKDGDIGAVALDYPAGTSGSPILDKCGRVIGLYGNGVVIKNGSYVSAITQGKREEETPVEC
# T3 sequence (Q32ZE1 1421-1460): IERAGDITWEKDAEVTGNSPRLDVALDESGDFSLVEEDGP
# T2 sequence (P29990 1398-1437): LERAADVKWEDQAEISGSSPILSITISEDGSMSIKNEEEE
# T2 sequence (P29990 1476-1653): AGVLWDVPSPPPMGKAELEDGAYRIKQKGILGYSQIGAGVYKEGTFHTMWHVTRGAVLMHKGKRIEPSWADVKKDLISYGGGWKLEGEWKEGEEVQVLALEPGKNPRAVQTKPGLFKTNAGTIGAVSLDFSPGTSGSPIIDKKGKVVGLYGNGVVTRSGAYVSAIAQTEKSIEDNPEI
# T1 sequence (P06935 1424-1463): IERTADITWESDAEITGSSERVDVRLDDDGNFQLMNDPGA
# T1 sequence (P06935 1502-1679): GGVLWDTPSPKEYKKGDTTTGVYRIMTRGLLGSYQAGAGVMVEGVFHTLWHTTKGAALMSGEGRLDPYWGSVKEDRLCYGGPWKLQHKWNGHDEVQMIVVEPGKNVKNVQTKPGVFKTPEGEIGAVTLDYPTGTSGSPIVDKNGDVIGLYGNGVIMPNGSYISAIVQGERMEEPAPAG
structure (smiles),measurement,setting,value
CCCCCCCCCCCCCCCC(=O)N[C@@H](CCCCN)CC(=O)N[C@@H](C)C(=O)N[C@@H](C)CC(=O)N[C@H](CCCCN)C(N)=O (stereo in doubt) [compound 113],IC50,[1],≤ 40 µM
same,Body weights of mice at the end of the study (Mean ± SD),[2]; 10 mg/kg I.P,17.22 ± 1.39 g
same,Body weights of mice at the end of the study (Mean ± SD),[2]; 20 mg/kg I.P,16.89 ± 1.36 g
same,general clinical signs of treated animals,[2],apparently normal
same,pharmacokinetic profiles,[3],reliable pharmacokinetic profiles with limited inter animal variability and dose proportionality
same,elimination in blood plasma,[3]; sc,slow elimination
same,pharmacokinetic behaviour when administered subcutaneously,[3]; sc,improved pharmacokinetic behaviour
same,inhibition at 50 µM,[4],≥ 25%
same,inhibition of DENV protease (in words),[4]; biochemical and cellular infection assays,potent and specific inhibition
same,IC50,[5],≤ 25 µM
same,inhibition at 1 µM,[5],≥ 10%
same,inhibition at 50 µM,[5],≥ 65%
CCCCCCCCCCCCCCCC(=O)N[C@@H](CCCNC(=N)N)C(=O)N[C@@H](CCC(N)=O)C(=O)N[C@@H](Cc1ccccc1)C(N)=O [compound 43] (Palmitoyl-Arg-Gln-Phe-NH2),IC50,[1],≤ 40 µM
same,Body weights of mice at the end of the study (Mean ± SD),[2]; 10 mg/kg I.P,18.78 ± 2.28 g
same,Body weights of mice at the end of the study (Mean ± SD),[2]; 20 mg/kg I.P,18.11 ± 1.45 g
same,general clinical signs of treated animals,[2],apparently normal
same,pharmacokinetic behaviour when administered subcutaneously,[3]; sc,improved pharmacokinetic behaviour
same,inhibition at 50 µM,[4],≥ 25%
same,IC50,[5],≤ 25 µM
same,inhibition at 1 µM,[5],≥ 10%
same,inhibition at 50 µM,[5],≥ 65%
